Measured values published in US8143418B2, “Dimeric small molecule potentiators of apoptosis” (Board of Regents, The University of Texas System, priority 2004, dated 2012).

System: Wap-ras tumors
Assay: In vivo therapy in the WAP-RAS transgenic model
Design: species or system mice
Conditions: mimetic 20 mpk po every 12 hours; Paclitaxel 5 mpk ip
Method: Mimetic and Paclitaxel combination efficacy is also evaluated in the Wap-ras transgenic model.
Mimetics (20 mpk/dosing po) were dissolved in 20% hydroxyl-propyl-betacyclodexatrin (Vehicle I). 0.2 ml of mimetic solution is the oral dosing volume. Paclitaxel (5 mpk/dosing ip) was dissolved in a diluted ethanol/cremophor EL solution (vehicle II) and the i.p. dosing volume for paclitaxel was 0.1 ml.
The mice are weighed, randomized, and ear-marked on Day 0. Mimetic treatment and Vehicle I treatment began on Day 1 and continued every 12 hours until Day 21. Paclitaxel and Vehicle II treatments are started on Day 4 and continued daily on Day 5, 6, and 7.

Compound: CC(=O)O[C@H]1C(=O)[C@@]2(C)[C@H]([C@H](OC(=O)c3ccccc3)[C@]3(O)C[C@H](OC(=O)[C@H](O)[C@@H](NC(=O)c4ccccc4)c4ccccc4)C(C)=C1C3(C)C)[C@]1(OC(C)=O)CO[C@@H]1C[C@@H]2O [Paclitaxel]
- tumor response to treatment: do not respond
